In the supplement of paper PMC10307832:

Experiments:
Experiment in all cases: relative viability (nuclei count vs DMSO), 5 days (fraction); higher = more cells survive
[1] = system: A-427
In short: (§1)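 Five library-drug doses in √10 steps were combined with a fixed anchor-drug dose, or a single drug was given alone, by pin tool to lung cancer cell lines in 1536-well plates the day after seeding. Nuclei were stained and counted after 5 days. Relative viability is the nuclei count in treated wells over that in vehicle wells, taken as the median of duplicate plates.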

[2] = system: COR-L 105
In short: as §1

[3] = system: EPLC-272H
In short: as §1

[4] = system: HCC-366
In short: as §1

[5] = system: HCC-78
In short: as §1

[6] = system: HOP-62
In short: as §1

[7] = system: LC-2-ad
In short: as §1

[8] = system: LU99A
In short: as §1

[9] = system: LXF-289
In short: as §1

[10] = system: NCI-H1666
In short: as §1

[11] = system: NCI-H1792
In short: as §1

[12] = system: NCI-H1793
In short: as §1

[13] = system: NCI-H1915
In short: as §1

[14] = system: NCI-H1944
In short: as §1

[15] = system: NCI-H2009
In short: as §1

[16] = system: NCI-H2085
In short: as §1

[17] = system: NCI-H2170
In short: as §1

[18] = system: NCI-H358
In short: as §1

[19] = system: NCI-H460
In short: as §1

[20] = system: SK-LU-1
In short: as §1

[21] = system: SW 900
In short: as §1

[22] = system: UMC-11
In short: as §1

## Nc1ccn([C@@H]2O[C@H](CO)[C@@H](O)[C@@H]2O)c(=O)n1 [Cytarabine] + N=C(N)NC(=N)NCCc1ccccc1 [Phenformin] (partner 250 µM)
[1]; first compound 0.005 µM
  relative viability: 0.255
[1]; first compound 0.01581 µM
  relative viability: 0.188
[1]; first compound 0.05 µM
  relative viability: 0.207
[1]; first compound 0.5 µM
  relative viability: 0.153
[2]; first compound 0.005 µM
  relative viability: 0.428
[2]; first compound 0.01581 µM
  relative viability: 0.504
[2]; first compound 0.05 µM
  relative viability: 0.43
[2]; first compound 0.1581 µM
  relative viability: 0.29
[2]; first compound 0.5 µM
  relative viability: 0.259
[3]; first compound 0.005 µM
  relative viability: 0.249
[3]; first compound 0.01581 µM
  relative viability: 0.277
[3]; first compound 0.05 µM
  relative viability: 0.26
[3]; first compound 0.1581 µM
  relative viability: 0.147
[3]; first compound 0.5 µM
  relative viability: 0.214
[4]; first compound 0.005 µM
  relative viability: 0.617
[4]; first compound 0.01581 µM
  relative viability: 0.586
[4]; first compound 0.05 µM
  relative viability: 0.528
[4]; first compound 0.1581 µM
  relative viability: 0.2
[4]; first compound 0.5 µM
  relative viability: 0.0951
[5]; first compound 0.005 µM
  relative viability: 0.8
[5]; first compound 0.01581 µM
  relative viability: 0.629
[5]; first compound 0.05 µM
  relative viability: 0.466
[5]; first compound 0.1581 µM
  relative viability: 0.363
[5]; first compound 0.5 µM
  relative viability: 0.366
[6]; first compound 0.005 µM
  relative viability: 0.506
[6]; first compound 0.01581 µM
  relative viability: 0.486
[6]; first compound 0.05 µM
  relative viability: 0.399
[6]; first compound 0.1581 µM
  relative viability: 0.156
[6]; first compound 0.5 µM
  relative viability: 0.152
[7]; first compound 0.005 µM
  relative viability: 0.454
[7]; first compound 0.01581 µM
  relative viability: 0.466
[7]; first compound 0.05 µM
  relative viability: 0.49
[7]; first compound 0.1581 µM
  relative viability: 0.344
[7]; first compound 0.5 µM
  relative viability: 0.261
[8]; first compound 0.005 µM
  relative viability: 1.07
[8]; first compound 0.01581 µM
  relative viability: 0.747
[8]; first compound 0.05 µM
  relative viability: 0.871
[8]; first compound 0.1581 µM
  relative viability: 0.775
[8]; first compound 0.5 µM
  relative viability: 0.808
[9]; first compound 0.005 µM
  relative viability: 0.413
[9]; first compound 0.01581 µM
  relative viability: 0.406
[9]; first compound 0.05 µM
  relative viability: 0.341
[9]; first compound 0.1581 µM
  relative viability: 0.129
[9]; first compound 0.5 µM
  relative viability: 0.0821
[10]; first compound 0.005 µM
  relative viability: 0.545
[10]; first compound 0.01581 µM
  relative viability: 0.669
[10]; first compound 0.05 µM
  relative viability: 0.466
[10]; first compound 0.1581 µM
  relative viability: 0.401
[10]; first compound 0.5 µM
  relative viability: 0.396
[11]; first compound 0.01581 µM
  relative viability: 0.107
[11]; first compound 0.05 µM
  relative viability: 0.16
[11]; first compound 0.1581 µM
  relative viability: 0.196
[11]; first compound 0.5 µM
  relative viability: 0.133
[12]; first compound 0.005 µM
  relative viability: 0.359
[12]; first compound 0.01581 µM
  relative viability: 0.34
[12]; first compound 0.05 µM
  relative viability: 0.284
[12]; first compound 0.1581 µM
  relative viability: 0.251
[12]; first compound 0.5 µM
  relative viability: 0.216
[13]; first compound 0.005 µM
  relative viability: 0.324
[13]; first compound 0.01581 µM
  relative viability: 0.328
[13]; first compound 0.05 µM
  relative viability: 0.329
[13]; first compound 0.1581 µM
  relative viability: 0.268
[13]; first compound 0.5 µM
  relative viability: 0.245
[14]; first compound 0.005 µM
  relative viability: 0.166
[14]; first compound 0.01581 µM
  relative viability: 0.184
[14]; first compound 0.05 µM
  relative viability: 0.14
[14]; first compound 0.1581 µM
  relative viability: 0.106
[14]; first compound 0.5 µM
  relative viability: 0.103
[15]; first compound 0.005 µM
  relative viability: 0.42
[15]; first compound 0.01581 µM
  relative viability: 0.503
[15]; first compound 0.05 µM
  relative viability: 0.455
[15]; first compound 0.1581 µM
  relative viability: 0.386
[15]; first compound 0.5 µM
  relative viability: 0.268
[16]; first compound 0.005 µM
  relative viability: 0.746
[16]; first compound 0.01581 µM
  relative viability: 0.67
[16]; first compound 0.05 µM
  relative viability: 0.757
[16]; first compound 0.1581 µM
  relative viability: 0.413
[16]; first compound 0.5 µM
  relative viability: 0.362
[17]; first compound 0.005 µM
  relative viability: 0.328
[17]; first compound 0.01581 µM
  relative viability: 0.321
[17]; first compound 0.05 µM
  relative viability: 0.25
[17]; first compound 0.1581 µM
  relative viability: 0.218
[17]; first compound 0.5 µM
  relative viability: 0.205
[18]; first compound 0.005 µM
  relative viability: 0.235
[18]; first compound 0.01581 µM
  relative viability: 0.2
[18]; first compound 0.05 µM
  relative viability: 0.222
[18]; first compound 0.1581 µM
  relative viability: 0.0765
[18]; first compound 0.5 µM
  relative viability: 0.076
[19]; first compound 0.005 µM
  relative viability: 0.309
[19]; first compound 0.01581 µM
  relative viability: 0.248
[19]; first compound 0.05 µM
  relative viability: 0.114
[19]; first compound 0.1581 µM
  relative viability: 0.0419
[19]; first compound 0.5 µM
  relative viability: 0.0341
[20]; first compound 0.005 µM
  relative viability: 0.353
[20]; first compound 0.01581 µM
  relative viability: 0.413
[20]; first compound 0.05 µM
  relative viability: 0.445
[20]; first compound 0.1581 µM
  relative viability: 0.241
[20]; first compound 0.5 µM
  relative viability: 0.2
[21]; first compound 0.005 µM
  relative viability: 0.472
[21]; first compound 0.01581 µM
  relative viability: 0.395
[21]; first compound 0.05 µM
  relative viability: 0.367
[21]; first compound 0.1581 µM
  relative viability: 0.18
[21]; first compound 0.5 µM
  relative viability: 0.155
[22]; first compound 0.005 µM
  relative viability: 0.245
[22]; first compound 0.01581 µM
  relative viability: 0.232
[22]; first compound 0.05 µM
  relative viability: 0.205
[22]; first compound 0.1581 µM
  relative viability: 0.195
[22]; first compound 0.5 µM
  relative viability: 0.159
